Measurements from article PMC5831858, “Pharmacological characterisation of CR6086, a potent prostaglandin E2 receptor 4 antagonist, as a new potential disease-modifying anti-rheumatic drug” (Arthritis Research & Therapy, 2018).

Assays:
[1] = tested on: arthritic mice (collagen-induced arthritis model); test: FACS analysis of cell populations in the joint, CIA mice; format: in vivo, mouse; conditions: CR6086 60 mg/kg, naproxen 60 mg/kg, etanercept 10 mg/kg, mean ± SEM
Description: (§1) In a first study, mice were randomised into the following treatment groups: vehicle, 30 mg/kg CR6086, 60 mg/kg CR6086, 60 mg/kg naproxen and 10 mg/kg etanercept. Animals received the test drugs for 10 days. CR6086 and naproxen were administered orally once daily, whereas etanercept was administered intraperitoneally every other day. Animals treated with vehicle, 60 mg/kg CR6086, naproxen and etanercept were additionally analysed for the proportion of populations of Th17 cells, Th1 cells, regulatory T cells, B cells, macrophages, neutrophils and dendritic cells by fluorescence-activated cell sorting (FACS) after collection of blood, draining lymph nodes and joints.

[2] = tested on: arthritic mice (collagen-induced arthritis model); test: CIA in mice, second study: serum cytokines and signal limb histology; format: in vivo, mouse; conditions: 60 mg/kg oral daily, 10 days; mean ± SEM
IL-23 release = IL-23 release from human dendritic cells; format: cell-based; conditions: Dendritic cell, at 10 μM, read-out: inhibition of IL-23 release (plateau)
Description: PBMCs were purified using Histopaque (Sigma-Aldrich, St. Louis, MO, USA). CD14^+ cells were positively selected in a magnetic field (magnetic-activated cell sorting [MACS]; Miltenyi Biotec, Bergisch Gladbach, Germany). Purified CD14^+ cells were subsequently cultured for 7 days in differentiation medium (RPMI 1640 + 10% FBS, granulocyte-macrophage colony-stimulating factor 50 ng/ml and IL-4 100 ng/ml) and then stimulated with LPS (10 ng/ml), R848 2.5 μg/ml and PGE2 10 nM for 24 h in the presence of CR6086 (0.01–30 μM) or naproxen (1–30 μM). IL-23 release was measured by enzyme-linked immunosorbent assay (ELISA) (R&D Systems, Minneapolis, MN, USA).

IL-17 release = IL-17 release from human Th17 cells; format: cell-based; conditions: 1–10 μM
Description: PBMCs were purified using Histopaque. CD4^+CD45^+ naive T cells were indirectly selected in a magnetic field (MACS; Miltenyi Biotec). Purified CD4^+ cells were subsequently cultured for 7 days in differentiation medium (RPMI 1640 + FBS 10%, IL-6 30 ng/ml, transforming growth factor [TGF]-β 2.25 ng/ml, IL-23 30 ng/ml, IL-1β 20 ng/ml, anti-interferon (IFN)-γ 1 ng/ml and anti-IL-4 2.5 ng/ml). Th17 cell expansion was stimulated by addition of anti-CD3/[…]anti-CD28 beads to the medium with a cell-to-beads ratio of 1:2. Th17 cells were stimulated with IL-6 30 ng/ml, TGF-β 2.25 ng/ml, IL-23 30 ng/ml, IL-1β 20 ng/ml and PGE2 10 nM for 48 h in the presence of CR6086 (0.03–10 μM) or naproxen (1–10 μM). IL-17 release was measured by ELISA (Abcam, Cambridge, UK).

[3] = tested on: arthritic mice (collagen-induced arthritis model); test: CIA in mice, first study: clinical score and paw swelling; format: in vivo, mouse; conditions: 10 days; CR6086 30 and 60 mg/kg, naproxen 60 mg/kg oral once daily; etanercept 10 mg/kg i.p. every other day
Description: Male DBA/1 mice were immunised by intradermal injection at the base of the tail with an emulsion of 200 μg of bCII in CFA containing 3 mg/ml Mycobacterium tuberculosis. Non-immunised mice served as the negative control of disease. Animals were monitored by visual inspection for appearance of peripheral oedema. […] Upon onset, animals were recruited and randomised. Recruitment was given a cut-off at day 40. Upon recruitment, arthritis clinical score was assigned, and oedema was measured via caliper.
as §1
Oedema measurement was performed every day before treatment, and all animals were blindly scored for clinical signs of arthritis as follows: 0 = normal; 1 = slight swelling and/or erythema; 2 = pronounced oedematous swelling; and 3 = ankyloses and severe swelling. A score of 0.5 was given to swollen toe/toes or when inflammation was localised to one part of the foot. Each limb was measured separately, with a final score based on the sum of the scores from all four paws.

rat arthritis models = tested on: rat arthritis models; parameters: method as in FDA pharmacological review; conditions: ref FDA pharmacological review; cited from earlier work
mouse arthritis models = tested on: mouse arthritis models; parameters: method as in FDA pharmacological review; conditions: ref FDA pharmacological review; cited from earlier work

Structure (SMILES)	B cells, Percentage of total cells [1]	Dendritic cells, Percentage of total cells [1]	Macrophages, Percentage of total cells [1]	Neutrophils, Percentage of total cells [1]	Th1, Percentage of total cells [1]	Th17, Percentage of total cells [1]	Treg, Percentage of total cells [1]	IFNγ serum concentration [2]	IL-10 serum concentration [2]	IL-17 serum concentration [2]	TNFα serum concentration [2]	inhibition at 10 µM (IL-23 release)	effect on IL-17 release (IL-17 release)	effect on disease parameters (visual clinical score, paw swelling) vs vehicle [3]	potency in rat arthritis models (rat arthritis models)	potency in mouse arthritis models (mouse arthritis models)
COc1ccc2cc([C@H](C)C(=O)O)ccc2c1 [Naproxen, naproxen, reference compound]	5.77 ± 1.16%	1.96 ± 0.48%	16.31 ± 4.44%	16.47 ± 4.48%	0.35 ± 0.07%	0.21 ± 0.08%	0.63 ± 0.22%	3.48 ± 1.10 pg/mL	16.21 ± 2.23 pg/mL	2.58 ± 0.43 pg/mL	43.01 ± 4.55 pg/mL	~50%	inactive	ineffective	–	–
C[C@@H]1CCN(C(=O)CC#N)C[C@@H]1N(C)c1ncnc2[nH]ccc12 [tofacitinib]	–	–	–	–	–	–	–	–	–	–	–	–	–	–	6.2 mg/kg	50 mg/kg
